Key:
[1] = Nitric oxide (NO) scavenging activity; conditions: nitric oxide radical scavenging, 37 °C, 2 h
Description: The screening of the present compound series for NO radical scavenging activity (Table 2) identified excellent NO scavengers.
The antioxidant capacity of the compounds to scavenge nitric oxide radicals was determined using a modified version of the protocol by Kurian et al.. Briefly, 250 μL of sodium nitroprusside (10 mM) prepared in sodium phosphate buffer (pH 7.4) was added to 500 μL of the compound solution (62.5–500 μM) or distilled water (control). The resulting solution was incubated at 37 °C for 2 h. Then, 250 μL of Griess reagent was added to the reaction mixture before the absorbance was measured at 546 nm. The nitric oxide scavenging activity of the compounds was calculated with the formula: Nitric oxide scavenging (%)=1−Absorbance of compound/Absorbance of control×100

α-glucosidase [2] = target: T1, α-glucosidase (Saccharomyces cerevisiae, UniProt P38158); test: Mode of α-glucosidase inhibition (enzyme kinetics, Lineweaver–Burk); assay type: biochemical; conditions: Lineweaver–Burk plots; inhibitor 0, 75, 150, 300 µM; pNPG
T1 construct: purchased Merck
Description: Understanding a drug’s mode of inhibiting its target is crucial to improve the drug’s activity profile and target specificity. Although orthosteric inhibition, in which the ligand binds at the target’s active site, dominates among currently available drugs, allosteric inhibitors (i.e., drugs binding at regions […] the active site) are desirable due to their reduced vulnerability to active site mutation or to displacement through native substrate overload at the active site. Accordingly, the mode of α-glucosidase inhibition was investigated for promising compounds 4b, 4i, 4j, 4k, 4l, 12k, and 12m, using a time-dependent para-nitrophenyl-[…] (pNPG) assay; the results are presented as Lineweaver–Burk plots (Figure 4). […] Conceivably, this can result in decreased systemic glucose concentration thus alleviating postprandial hyperglycemia and its associated complications.
The mode of inhibition of α-glucosidase of the 4b, 4i, 4j, 4k, 4l, 12k, and 12m compounds was determined using the method described by Kazeem et al. 2013, with modifications. Briefly, 50 µL of the 4b, 4i, 4j, 4k, 4l, 12k, and 12m compounds at (0 µM, 75 µM, 150 µM and 300 µM) concentrations were preincubated with 100 µL of α-glucosidase solution for 10 min at 25 °C in one set of tubes. In another set of tubes, α-glucosidase was preincubated with 50 µL of phosphate buffer (pH 6.9). 25 µL of pNPG at increasing concentrations (0.125–4.0 mg/mL) was added to both sets of solution to start the reaction. Immediately, the absorbance of the resulting solution was monitored for 2 min in a spectrophotometer at 405 nm. The amount of 4-nitrophenol released was determined from a 4-nitrophenol standard curve and then converted to reaction velocities.

α-glucosidase [3] = target: T1, α-glucosidase; test: biochemical; conditions: pNPG substrate, pH 6.8, 37 °C; read-out: IC50 α-Glucosidase
Description: The α-glucosidase inhibitory activity was evaluated using a previous method with slight modifications.

[4] = target: T2, porcine pancreatic amylase (Sus scrofa, UniProt P00690); test: α-Amylase inhibitory activity (starch/DNS); assay type: biochemical; conditions: porcine pancreatic amylase, starch, pH 6.9, 25 °C; read-out: IC50 α-Amylase
T2 construct: purchased Merck
T2 sequence (P00690 16-511): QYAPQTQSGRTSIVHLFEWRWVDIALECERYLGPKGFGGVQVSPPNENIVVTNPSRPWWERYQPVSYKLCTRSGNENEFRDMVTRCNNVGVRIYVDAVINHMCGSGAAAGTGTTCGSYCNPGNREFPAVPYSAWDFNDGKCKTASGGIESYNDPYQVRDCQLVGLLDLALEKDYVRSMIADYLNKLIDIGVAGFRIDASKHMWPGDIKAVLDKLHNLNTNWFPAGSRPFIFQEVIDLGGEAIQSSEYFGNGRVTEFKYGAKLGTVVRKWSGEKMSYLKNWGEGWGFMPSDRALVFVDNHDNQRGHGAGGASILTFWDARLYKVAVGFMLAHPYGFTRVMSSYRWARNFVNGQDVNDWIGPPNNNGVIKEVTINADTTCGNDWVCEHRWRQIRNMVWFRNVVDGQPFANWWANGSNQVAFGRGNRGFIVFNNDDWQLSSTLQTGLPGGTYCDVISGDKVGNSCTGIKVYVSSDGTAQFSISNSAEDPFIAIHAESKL
Description: α-Amylase inhibitory activity was determined according to Ibitoye et al. with slight modifications. […] The reaction in the mixture was terminated with a 1 mL dinitrosalicylate reagent before boiling for 10 min. The cooled mixture was diluted with 5 mL distilled water, and the absorbance was read at 540 nm. The inhibitory activity was calculated using the formula below: % Inhibition=1−Absorbance of compound/Absorbance of control×100

[5] = Ferric reducing antioxidant power (FRAP); conditions: ferric reducing antioxidant power
Description: FRAP is a ferric (Fe^3+) to ferrous (Fe^2+) ions reduction assay that measures a compound’s electron-donating capacity, i.e., the antioxidant’s reducing power.
The mixture was incubated at 50 °C for 20 min, followed by acidification with 100 μL trichloroacetic acid (10%). After centrifugation at 3500 rpm for 10 min, 200 μL of the supernatant was transferred into another test tube containing 200 μL of distilled water and 0.8 mL of FeCl3 (0.1%). Finally, the absorbance was read at 700 nm, and the total reductive antioxidant power was calculated thus: Ferric reducing antioxidant power (%)=Absorbance of compound/Absorbance of 500µM gallic acid×100

[6] = DPPH radical scavenging activity; conditions: DPPH radical scavenging, 30 min, 25 °C
Description: The DPPH assay is used conventionally to quantify a compound’s ability to trap free radicals.
The compounds were evaluated for their ability to scavenge stable DPPH radicals, using a modification of the method by Turkoglu et al..

T1 sequence (P38158 whole entry): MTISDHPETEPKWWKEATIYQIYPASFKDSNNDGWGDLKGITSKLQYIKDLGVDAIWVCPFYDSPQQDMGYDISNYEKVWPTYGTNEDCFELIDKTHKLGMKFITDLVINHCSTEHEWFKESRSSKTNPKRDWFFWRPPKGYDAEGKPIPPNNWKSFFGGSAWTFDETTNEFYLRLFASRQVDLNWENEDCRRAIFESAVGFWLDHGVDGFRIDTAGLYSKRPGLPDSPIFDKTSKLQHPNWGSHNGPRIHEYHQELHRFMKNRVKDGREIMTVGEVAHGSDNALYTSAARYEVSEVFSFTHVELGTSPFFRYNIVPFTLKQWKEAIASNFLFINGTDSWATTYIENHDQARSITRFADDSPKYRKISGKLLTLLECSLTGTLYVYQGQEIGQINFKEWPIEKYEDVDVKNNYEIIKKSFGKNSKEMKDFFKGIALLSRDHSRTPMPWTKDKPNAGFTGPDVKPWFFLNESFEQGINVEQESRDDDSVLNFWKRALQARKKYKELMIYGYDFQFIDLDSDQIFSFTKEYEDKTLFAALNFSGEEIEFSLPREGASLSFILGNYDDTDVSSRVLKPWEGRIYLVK

Row | SMILES | IC50 [1] [µM] | mode of α-glucosidase inhibition (α-glucosidase [2]) | IC50 (α-glucosidase [3]) [µM] | IC50 [4] [µM] | melting point [°C] | IC50 [5] [µM] | IC50 [6] [µM]
1 | Fc1ccc(CSc2nnc(COc3cccc4cccnc34)o2)cc1 [4k, 2-[(4-Fluorobenzyl)thio]-5-[(quinolin-8-yloxy)methyl]-1,3,4-oxadiazole] | > 500 | non-competitive | 23.7 | > 500 | 106.9 to 109.4 | > 500 | 81.1
2 | CCCSc1nnc(COc2cccc3cccnc23)o1 [4b, 2-(Propylthio)-5-[(quinolin-8-yloxy)methyl]-1,3,4-oxadiazole] | > 500 | non-competitive | 24.9 | > 500 | – | > 500 | 78.2
3 | Fc1ccc(-n2cc(CSc3nnc(COc4cccc5cccnc45)o3)nn2)cc1 [12m, 2-{[(1-(4-Fluorophenyl)-1H-1,2,3-triazol-4-yl)methyl]thio}-5-[(quinolin-8-yloxy)methyl]-1,3,4-oxadiazole] | > 500 | non-competitive | 26.8 | > 500 | 134 to 140 | > 500 | 88.7
4 | Clc1ccc(-n2cc(CSc3nnc(COc4cccc5cccnc45)o3)nn2)cc1 [12l, 2-{[(1-(4-Chlorophenyl)-1H-1,2,3-triazol-4-yl)methyl]thio}-5-[(quinolin-8-yloxy)methyl]-1,3,4-oxadiazole] | > 500 | – | 38 | > 500 | 132 to 136 | > 500 | 81.7
5 | O=[N+]([O-])c1ccc(Cn2cc(CSc3nnc(COc4cccc5cccnc45)o3)nn2)cc1 [12g, 2-{[(1-(4-Nitrobenzyl)-1H-1,2,3-triazol-4-yl)methyl]thio}-5-[(quinolin-8-yloxy)methyl]-1,3,4-oxadiazole] | 3.01 | – | 46.5 | > 500 | 100 to 106 | > 500 | 81.9
6 | Fc1ccc(CSc2nnc(COc3cccc4cccnc34)o2)c(F)c1 [4r, 2-[(2,4-Difluorobenzyl)thio]-5-[(quinolin-8-yloxy)methyl]-1,3,4-oxadiazole] | > 500 | – | 28.2 | > 500 | 98.7 to 105.2 | > 500 | 64.5
7 | Cc1ccc(-n2cc(CSc3nnc(COc4cccc5cccnc45)o3)nn2)cc1 [12p, 2-[(Quinolin-8-yloxy)methyl]-5-{[(1-(p-tolyl)-1h-1,2,3-triazol-4-yl)methyl]thio}-1,3,4-oxadiazole] | > 500 | – | 44.1 | 495 | 78 to 80 | > 500 | 96
8 | BrCCCCCSc1nnc(COc2cccc3cccnc23)o1 [4i, 2-[(5-Bromopentyl)thio]-5-[(quinolin-8-yloxy)methyl]-1,3,4-oxadiazole] | 198 | non-competitive | 15.8 | > 500 | – | 22.9 | 54.9
9 | O=[N+]([O-])c1ccc(-n2cc(CSc3nnc(COc4cccc5cccnc45)o3)nn2)cc1 [12o, 2-{[(1-(4-Nitrophenyl)-1H-1,2,3-triazol-4-yl)methyl]thio}-5-[(quinolin-8-yloxy)methyl]-1,3,4-oxadiazole] | > 500 | – | 38.3 | > 500 | 150 to 156 | > 500 | 88.9
10 | Fc1ccc(CSc2nnc(COc3cccc4cccnc34)o2)cc1F [4s, 2-[(3,4-Difluorobenzyl)thio]-5-[(quinolin-8-yloxy)methyl]-1,3,4-oxadiazole] | > 500 | – | 35.4 | > 500 | 98.8 to 101.2 | > 500 | 87.2
11 | Clc1ccc(CSc2nnc(COc3cccc4cccnc34)o2)c(Cl)c1 [4t, 2-[(2,4-Dichlorobenzyl)thio]-5-[(quinolin-8-yloxy)methyl]-1,3,4-oxadiazole] | > 500 | – | 27.7 | > 500 | 116.7 to 119.7 | > 500 | 94
12 | Fc1ccc(Cn2cc(CSc3nnc(COc4cccc5cccnc45)o3)nn2)cc1 [12e, 2-{[(1-(4-Fluorobenzyl)-1H-1,2,3-triazol-4-yl)methyl]thio}-5-[(quinolin-8-yloxy)methyl]-1,3,4-oxadiazole] | > 500 | – | 39.3 | > 500 | 96 to 101 | > 500 | 92.8
13 | O=[N+]([O-])c1ccc(CSc2nnc(COc3cccc4cccnc34)o2)cc1 [4n, 2-[(4-Nitrobenzyl)thio]-5-[(quinolin-8-yloxy)methyl]-1,3,4-oxadiazole] | > 500 | – | 32.8 | > 500 | 156.6 to 160.1 | > 500 | 77.2
14 | COc1ccc(-n2cc(CSc3nnc(COc4cccc5cccnc45)o3)nn2)cc1 [12q, 2-{[(1-(4-Methoxyphenyl)-1H-1,2,3-triazol-4-yl)methyl]thio}-5-[(quinolin-8-yloxy)methyl]-1,3,4-oxadiazole] | > 500 | – | 62.1 | > 500 | 122 to 128 | > 500 | 98.5
15 | Brc1ccc(Cn2cc(CSc3nnc(COc4cccc5cccnc45)o3)nn2)cc1 [12f, 2-{[(1-(4-Bromobenzyl)-1H-1,2,3-triazol-4-yl)methyl]thio}-5-[(quinolin-8-yloxy)methyl]-1,3,4-oxadiazole] | 482 | – | 56.4 | > 500 | 78 to 82 | > 500 | 91.8
16 | CCCCSc1nnc(COc2cccc3cccnc23)o1 [4c, 2-(Butylthio)-5-[(quinolin-8-yloxy)methyl]-1,3,4-oxadiazole] | > 500 | – | 41.4 | > 500 | 88.3 to 93.5 | > 500 | 79
17 | Clc1cccc(Cn2cc(CSc3nnc(COc4cccc5cccnc45)o3)nn2)c1 [12h, 2-{[(1-(3-Chlorobenzyl)-1H-1,2,3-triazol-4-yl)methyl]thio}-5-[(quinolin-8-yloxy)methyl]-1,3,4-oxadiazole] | > 500 | – | 63.6 | > 500 | 78 to 84 | > 500 | 90.7
